# Measured values reported in patent US20130143873A1 (priority 2010, published 2013).
# Key:
# [1] = system: mice; conditions: 100 mg/kg (300 mg/m^2); cited from earlier work
# [2] = Blood glucose (hyperglycemia) after daily oral diazoxide in SOD1-G93A transgenic mice; format: in vivo; conditions: 4 mg/kg/day (12 mg/m^2/day) and 0.8 mg/kg/day (2.4 mg/m^2/day) p.o., 100 days, glucose at postnatal days 105, 115, 145
# Protocol: (§1) Transgenic C57BL/6J-TgN(SOD1-G93A)1Gur^dl mice were originally purchased from The Jackson Laboratories (Bar Harbor, Me.) and routinely identified as positive carriers of the transgene at early postnatal age by PCR amplification (Garney et al. Motor neuron degeneration in mice that express a human Cu,Zn superoxide dismutase mutation. Science 1994. 264(5166):1772-5). The animal colony was kept under controlled temperature (22±2° C.), humidity (40-60%) and light (12 h cycles), and treated in accordance with the European Community Council directive on animal welfare (86/609/EEC).
# At 40 days postnatal age, mice identified as positive carriers of the SOD1-G93A transgene were randomly assigned to a diazoxide-treatment or control group. The treatment started at postnatal day 45 and lasted until postnatal day 145. […] Each group consists of 3 animals.
# Glucose blood levels were measured at postnatal days 105, 115 and 145. Measurements were performed immediately before drug administration (time 0) and at 60 minutes. Blood samples were obtained from the saphenous vein and glucose levels were determined using a glucometer and glucose test strips (Accu-Chek® Aviva, Roche Diagnostics, Indianapolis, Ind., USA). For each group, hyperglycemia was considered when glucose concentration was equal or higher than 176 mg/dl.
# [3] = Blood glucose (hyperglycemia) after daily oral diazoxide in C57BL/6J mice; format: in vivo; conditions: female C57BL/6J mice; 1 mg/kg (3 mg/m^2) and 0.05 mg/kg (0.15 mg/m^2) p.o. daily; 30 days; glucose at time 0 and 60 minutes
# Protocol: Female C57BL/6J mice, 11 weeks of age, were purchased from Charles River and maintained on a 12:12 hr light:dark cycle, with standard chow and water freely available. The experiments began at 11:00 h. […] From day 4 on, glucose blood levels were measured every 3-4 days during the 30-day treatment period. Measurements were performed immediately before drug administration (time 0) and at 60 minutes. Blood samples were obtained from the saphenous vein and glucose levels were determined using a glucometer and glucose test strips (Accu-Chek® Aviva, Roche Diagnostics, Indianapolis, Ind., USA). For each group, hyperglycemia was considered when glucose concentration was equal or higher than 176 mg/dl.
# [4] = system: C57BL/6J-TgN(SOD1-G93A)1Gur^dl transgenic mice; assay: Motor nerve conduction, tibialis anterior CMAP amplitude, in transgenic mice model for amyotrophic lateral sclerosis; format: in vivo; conditions: postnatal day 45 to 85; for increase in the amplitude of the tibialis anterior CMAP compared with the vehicle control group: 100% = mean CMAP amplitude of wild type control group
# Protocol: as §1
# At 40 days postnatal age, mice identified as positive carriers of the SOD1-G93A transgene were randomly assigned to a diazoxide-treatment or control group. An additional group composed by wild type C57BL/6J was also used as absolute control for nerve conduction measurements. The treatment started at postnatal day 45 and lasted until postnatal day 85. The drug was administered daily orally by gavage (p.o.), in a dose volume of 200 μl. […] Each group consists of 8 animals.
# At postnatal day 85 days, animals were tested for nerve conduction measurament. For motor nerve conduction tests, the sciatic nerve was stimulated percutaneously by means of single pulses of 0.02 ms duration (Grass S88) delivered through a pair of needle electrodes placed at the sciatic notch. The Compound Muscle Action Potential (CMAP, M wave) was recorded from the tibialis anterior (TA) with microneedle electrodes. […] To ensure reproducibility, the recording needles were placed under microscope to secure the same placement on all animals guided by anatomical landmarks. During the tests, the mice body temperature was kept constant by means of a thermostated warming pad.
# [5] = system: C57BL/6J-TgN(SOD1-G93A)1Gur^dl transgenic mice; assay: Disease onset (time of peak body weight) in transgenic mice model for amyotrophic lateral sclerosis; format: in vivo; conditions: postnatal day 45 to 145
# Protocol: as §1
# At 40 days postnatal age, mice identified as positive carriers of the SOD1-G93A transgene were randomly assigned to a diazoxide-treatment or control group. The treatment started at postnatal day 45 and lasted until postnatal day 145. […] Each group consists of 30 animals.
# The disease onset was determined as the time when the mouse reached its peak body weight.
# [6] = system: C57BL/6J-TgN(SOD1-G93A)1Gur^dl transgenic mice; assay: Survival in transgenic mice model for amyotrophic lateral sclerosis; format: in vivo
# Protocol: as §1
# At 70 days postnatal age, mice identified as positive carriers of the SOD1-G93A transgene were randomly assigned to a diazoxide-treatment or control group. An additional group composed by wild type C57BL/6J was also used as absolute control for spontaneous deaths. The treatment started at postnatal day 70 and lasted until the animal was sacrificed. […] Each group consists of 14 animals.
# Around 75 days of postnatal age treated and not treated mice began to display less exploratory activity and less feeding behaviour as well as a loss of body weight. 20-30 days after, motor deficits were clearly observable, with a continuous loss of muscular mass and body weight. Between postnatal day 137 and 172 animals began to not be able to right themselves within 30 seconds from either side being this their last period of survival. Date and cause of death were recorded for each mouse. For humanitarian reasons, animals were closely monitored and sacrificed as moribund prior to actual death using criteria for severe moribund state. To determine duration of survival reliably and humanely, the moribund state, defined as the inability of mice to right themselves 30 seconds after being placed on a side was used. The moribund mice were considered as “dead”, and were euthanized using carbon dioxide. It is known that when animals reach this “moribund” stage they are unable to survive more than 24 additional hours.
# [7] = 0.05 mg/kg/day (0.15 mg/m^2/day) p.o. from postnatal day 70
# [8] = 0.1 mg/kg/day (0.3 mg/m^2/day) p.o. from postnatal day 70
# [9] = 1 mg/kg/day (3 mg/m^2/day) p.o. from postnatal day 70
smiles,measurement,setting,value
CC1=NS(=O)(=O)c2cc(Cl)ccc2N1 [Diazoxide],effect on bupivacaine-induced acute CNS toxicity (latency of convulsions),[1],reduce the bupivacaine-induced actute CNS toxicity
same,hyperglycemia (glucose concentration equal or higher than 176 mg/dl),[2],none of the two doses tested in this study produced hyperglycemia
same,hyperglycemia (glucose concentration equal or higher than 176 mg/dl),[3],none of the two doses tested in this study produced hyperglycemia
same,increase in the amplitude of the tibialis anterior CMAP compared with the vehicle control group,[4]; 0.8 mg/kg/day (2.4 mg/m2/day) p.o.,17.1%
same,increase in the amplitude of the tibialis anterior CMAP compared with the vehicle control group,[4]; 4 mg/kg/day (12 mg/m2/day) p.o.,3.4%
same,amplitude of the tibialis anterior CMAP compared to the vehicle control group,[4]; 8 mg/kg/day (24 mg/m^2/day) p.o.,no differences
same,Median Age of Disease Onset,[5]; 0.8 mg/kg/day (2.4 mg/m^2/day) p.o.,121 days
same,Median Age of Disease Onset,[5]; 4 mg/kg/day (12 mg/m^2/day) p.o.,116 days
same,Median Survival,[6]; [7],153 days
same,Percentage of mice alive at age of 21 weeks,[6]; [7],78.6%
same,Percentage of mice alive at age of 21 weeks,"[6]; 0.05 mg/kg/day (0.15 mg/m^2/day) p.o. from postnatal day 70, listed as diazoxide",78.6%
same,Median Survival,[6]; [8],152 days
same,Percentage of mice alive at age of 21 weeks,[6]; [8],71.4%
same,Percentage of mice alive at age of 21 weeks,"[6]; 0.1 mg/kg/day (0.3 mg/m^2/day) p.o. from postnatal day 70, listed as diazoxide",71.4%
same,Median Survival,[6]; [9],156 days
same,Percentage of mice alive at age of 21 weeks,[6]; [9],85.7%
same,Percentage of mice alive at age of 21 weeks,"[6]; 1 mg/kg/day (3 mg/m^2/day) p.o. from postnatal day 70, listed as diazoxide",85.7%
